The test system of one experiment is Microdochium nivale. Briefly: In vitro assessment of combination activity with fungicides on agar.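 Further: scored as inactive or active or highly active.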 It counts as cell-based. As to conditions: fungicide at a rate just below that giving any control; visual assessment of % control. The protocol:
(§1) Method 2: In Vitro Assessment of Combination Activity
(§2) Selected compounds were assessed in combination with fungicides against a range of commercially important plant pathogenic fungi.
(§3) The test was conducted as follows. A fungicide was applied to a fungal plant pathogen at a rate slightly below that at which it gave any control, in combination with a suitable dose of the test compound. The test compound was recorded as active if control of the pathogen was observed.
(§4) In more detail, the test was conducted as follows. For each combination of fungicide, pathogen and test compound, the following wells were used. Well 1 contained a fungal pathogen growing on agar, and a fungicide at a rate just below that at which it gave any control of the pathogen. Well 2 was the same as Well 1, except that the test compound was also added at Rate 1. Well 3 was the same as Well 2, except that the test compound was added at Rate 2, where Rate 2 was higher than Rate 1. Finally, as a benchmark, Well 4 was the same as Well 1, except that it contained the fungicide at a higher rate, at which it gave partial control of the pathogen. Each of the Wells 1 to 4 were run in duplicate, giving a total of 8 wells for each combination of fungicide, pathogen and test compound. For each well, after a suitable period of incubation, a visual assessment of the % control of the pathogen by the fungicide was made.
(§5) The following fungicides were used in this assay: azoxystrobin, fluxapyroxad, and desthio prothioconazole. The following fungal pathogens were used in this assay. First, a strain of Zymoseptoria tritici with a reduced susceptibility to strobilurin fungicides; second a strain of Zymoseptoria tritici with a reduced susceptibility to SDHI fungicides (i.e., those that inhibit succinate dehydrogenase); and third, Microdochium nivale.

Experiment [1] has as its system Zymoseptoria tritici with a reduced susceptibility to strobilurin fungicides. The experiment is described as above. It counts as cell-based. To be noted: fungicide at a rate just below that giving any control; visual assessment of % control. How it is done: as §1, §2, §3, §4, §5;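 further: scored as inactive or active or highly active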
The subject of experiment [2] is Zymoseptoria tritici with a reduced susceptibility to SDHI fungicides. Described as above. It counts as cell-based. As to conditions: fungicide at a rate just below that giving any control; visual assessment of % control. How it is done: as §1, §2, §3, §4, §5
Another experiment deals with apyrase. Nature of the experiment: In vitro apyrase assay (screen for apyrase inhibitors, phosphate release read at 630 nm). It is filed as biochemical. To be noted: inhibitor conc at 1 mM; 1 hr at room temperature; rounded average of two assay results. The protocol: Method 1: In Vitro Apyrase Assay: Apyrase inhibitors useful as enhancers of pesticidal activity are assessed using an in vitro assay. The method of Windsor, Bio Techniques 33:1024-1030 (November 2002) was used as follows: Screen for Apyrase Inhibitors - 96 well plates were used for the assay: (Greiner bio-one: REF-655901-96 well, PS, F-bottom, Clear, Non-binding) Buffers: • Reaction Buffer: 60 mM Hepes; 3 mM MgCl2, 3 mM CaCl2 and 3 mM ATP (pH 6.5) • Development Buffer A: 2% aqueous ammonium molybdate • Development Buffer B: 11% ascorbic acid in 37.5% TCA in water • Stop buffer C: 2% trisodium citrate in 2% acetic acid solution in water • Add 100 μl of reaction buffer to each well. • Add […] (control) or inhibitor/compound or compounds such as […] or orthovanadate to each well. […] A blank cell indicates either <10% observed inhibition or a large difference between repetitions. In certain examples, the lack of observed inhibition is due to a lack of solubility of the compound under assay conditions, rather than a lack of apyrase inhibitory activity. Roux compound 15 inhibited apyrase in this assay at about 60%.

The subject of experiment [3] is Botrytis cinerea on tomatoes. Nature of the experiment: Greenhouse crop test in combination with commercial fungicide. It is filed as in vivo. As to conditions: for control of Botrytis by Amistar in combination with test compound: Amistar 0.03 L/ha; for activity against Botrytis of Balaya in combination with test compound: Balaya 0.0015 L/ha, compared to Balaya alone; for control of Botrytis by Proline in combination with test compound: Proline 0.00075 L/ha, compared to Proline alone. The protocol:
(§6) Method 3: Greenhouse Crop Tests
(§7) In this method, exemplary compounds were evaluated for their ability to control Zymoseptoria tritici on wheat, Botrytis cinerea on tomatoes, Asian Soya Rust (Phakopsora pachyrhizi) on soybean, and Brown Rust (Puccinia recondita) on wheat, in a controlled greenhouse environment in combination with one of four fungicides, Amistar, Imtrex, Proline or Balaya. In these studies, soybean cultivar Siverka, tomato (Money maker) and wheat plants (JB Diego) were used. Seeds were sown in 9 cm diameter pots to a depth of 1 to 2 cm using Petersfield potting compost (75% medium grade peat, 12% screened sterilized loam, 3% medium grade vermiculite, 10% grit (5 mm screened, lime free), 1.5 kg PG mix per m3, lime to pH5.5-6.0 and wetting agent (Vitax Ultrawet 200 ml per m3) and germinated/grown at 23° C. under a 16 h day/8 h night light regime. Plants were treated two to three weeks after sowing when they were at the BBCH 11 growth stage (first pair of true leaves (unifoliate) unfolded. A track sprayer was used to treat the plants with the mixture of commercial fungicide and test compound using a water volume of 200 L/ha. Plants were inoculated with the appropriate fungi (pathogen) 24 hours after treatment. Fungal pathogens used were Botrytis cinerea (Grey mold on tomato plants), Zymoseptoria tritici (Septoria leaf blotch on wheat plants), Puccinia triticina (Brown rust on wheat plants) and Phakopsora pachyrhyzi (Asian soy rust on soybean plants). Four replicates were used for each combination of fungicide, pathogen and test compound. Each plant was evaluated once the disease symptoms were fully expressed between seven to twenty days (depending on the pathogen) for % control of the disease. Appropriate controls were used for all experiments, including an ‘inoculation check’ wherein plants were inoculated with their specific pathogen to assess disease levels. Also, each commercial fungicide was tested on its own as a part of each treatment, this being benchmark against which the experimental compounds were evaluated. […] That is, the present compounds, although not fungicidal by themselves, enhance the activity of fungicides.
(§8) In these studies the fungicide was applied at the following rates

Experiment [4] concerns Zymoseptoria tritici on wheat. The description is as above. It counts as in vivo. To be noted: test compound at 20 ppm. How it is done: as §6, §7, §8
Setting [5] is: test compound rate not printed (same rate for both, the higher rate), compared to Amistar alone.

SMILES strings stand for the structures.

Twelve compounds from patent US20240101510A1, “APYRASE INHIBITORS” (Texas Crop Science, priority 2022, published 2024) can be followed below.
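Wherever activity in combination with azoxystrobin is given: scored as inactive or active or highly active.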
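Wherever activity in combination with desthio prothioconazole is given: scored as inactive or active or highly active.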
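Wherever activity in combination with fluxapyroxad is given: scored as inactive or active or highly active.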

For the compound `C/C(=N\NC(=O)c1cccc(F)c1)c1ccccn1` [I-4, (E)-3-fluoro-N′-(1-(pyridin-2-yl)ethylidene)benzohydrazide], the “activity in combination with azoxystrobin” value (“activity … with azoxystrobin” below) (in the experiment on Microdochium nivale; in experiment [1]; in experiment [2]) was “significant activity” in each case. For the same compound, the “activity in combination with desthio prothioconazole” value (in the experiment on Microdochium nivale; in experiment [1]; in experiment [2]) was “significant activity” throughout. Moreover, the “activity in combination with fluxapyroxad” value (from here on “activity … with fluxapyroxad”) (with Microdochium nivale; in experiment [1]; in experiment [2]) was “significant activity” in each case. Moreover, in the experiment on apyrase, the “% Inhibition of Apyrase” value was determined as 24%. The “control of Botrytis by Amistar in combination with test compound” value in experiment [3] (test compound at 15 ppm, compared to Amistar with Roux Compound 15 at 15 ppm) is “much higher levels of control”; in experiment [3] (setting [5]), “substantially higher than with Amistar alone”. In experiment [3] (test compound at 15 ppm), the “activity against Botrytis of Balaya in combination with test compound” value was “significantly more active”. The “control of Botrytis by Imtrex in combination with test compound” value in experiment [3] (Imtrex 0.005 L/ha, test compound at 30 ppm, compared to Imtrex alone or with Roux Compound 15 at 30 ppm) is on record as “far superior control”. The “control of Botrytis by Proline in combination with test compound” value in experiment [3] (test compound at 30 ppm) is listed as “notably higher than with Proline alone”.
With `CCCC/C=N/NC(=O)c1ccccc1` [I-9, (E)-N′-pentylidenebenzohydrazide], the “activity … with azoxystrobin” value in the experiment on Microdochium nivale is “significant activity”. The “activity in combination with desthio prothioconazole” value in experiment [2] is “significant activity”. Further, in the experiment on apyrase, the “% Inhibition of Apyrase” value was found to be 19%.
Consider `C/C(=N\NC(=O)c1cccc(C)c1)c1cnc2ccccc2c1` [I-215, (E)-3-methyl-N′-(1-(quinolin-3-yl)ethylidene)benzohydrazide], for which the “activity … with fluxapyroxad” value in the experiment with Microdochium nivale is “significant activity”. Moreover, in the experiment with apyrase, the “% Inhibition of Apyrase” value came out at 46%.
On to `C/C(=N\NC(=O)c1ccnc(C)n1)c1ccc2ccccc2c1` [I-219, (E)-2-methyl-N′-(1-(naphthalen-2-yl)ethylidene)pyrimidine-4-carbohydrazide], for which, in the experiment on apyrase, the “% Inhibition of Apyrase” value is given as 40%.
`C/C(=N\NC(=O)c1cccc(CO)c1)c1ccc2ccccc2c1` [I-220, (E)-3-(hydroxymethyl)-N′-(1-(naphthalen-2-yl)ethylidene)benzohydrazide]: the “% Inhibition of Apyrase” value in the experiment on apyrase came to 25%.
Same read-out and setting: for `C/C(=N\NC(=O)c1cccc(S(=O)(=O)N(C)C)c1)c1ccc2ccccc2c1` [I-221, (E)-N,N-dimethyl-3-(2-(1-(naphthalen-2-yl)ethylidene)hydrazine-1-carbonyl)benzenesulfonamide] the value was 23%.
As to `CNS(=O)(=O)c1cccc(C(=O)N/N=C(\C)c2ccc3ccccc3c2)c1` [I-222, (E)-N-methyl-3-(2-(1-(naphthalen-2-yl)ethylidene)hydrazine-1-carbonyl)benzenesulfonamide], the “% Inhibition of Apyrase” value in the experiment on apyrase was determined as 12%.
On to `C/C(=N\NC(=O)c1cc(C)ncn1)c1ccc2ccccc2c1` [I-223, (E)-6-methyl-N′-(1-(naphthalen-2-yl)ethylidene)pyrimidine-4-carbohydrazide], for which the “activity … with fluxapyroxad” value in the experiment on Microdochium nivale was “significant activity”. In experiment [1], the “activity in combination with desthio prothioconazole” value is “significant activity”. For the same compound, the “% Inhibition of Apyrase” value in the experiment with apyrase was 10%. Also, the “control of Zymoseptoria tritici by Balaya in combination with test compound” value in experiment [4] (Balaya 0.0015 L/ha, compared to Balaya alone or with Roux Compound 15 at 30 ppm) is on record as “notable superior results”. Moreover, the “control of Zymoseptoria tritici by Proline in combination with test compound” value in experiment [4] (Proline 0.0075 L/ha, compared to Proline alone and with Roux Compound 15) was “notable superior results”.
Take `C/C(=N\NC(=O)c1cccc(C)c1)c1ccc2c(c1)CCC2` [I-224, (E)-N′-(1-(2,3-dihydro-1H-inden-5-yl)ethylidene)-3-methylbenzohydrazide]: the “% Inhibition of Apyrase” value in the experiment with apyrase stood at 10%.
Turning to `C/C(=N\NC(=O)c1nccc(C)n1)c1ccc2ccccc2c1` [I-225, (E)-4-methyl-N′-(1-(naphthalen-2-yl)ethylidene)pyrimidine-2-carbohydrazide], in the experiment with apyrase, the “% Inhibition of Apyrase” value amounted to 6%.
Regarding `C/C(=N\NC(=O)c1cncc(C)c1)c1ccc2ccccc2c1` [I-226, (E)-5-methyl-N′-(1-(naphthalen-2-yl)ethylidene)nicotinohydrazide], the “% Inhibition of Apyrase” value with apyrase amounted to 1%.
For the compound `C/C(=N\NC(=O)c1cccc(C)c1)c1ccc2ccccc2c1` [Roux compound 15, reference compound], in the experiment with Microdochium nivale, the “activity … with azoxystrobin” value is on record as “no activity”, the “activity in combination with desthio prothioconazole” value was “no activity” and the “activity … with fluxapyroxad” value is “no activity”. For the same compound, in experiment [1], the “activity … with azoxystrobin” value is “no activity”, the “activity in combination with desthio prothioconazole” value is recorded as “no activity” and the “activity … with fluxapyroxad” value is listed as “no activity”. In experiment [2], the “activity … with azoxystrobin” value is on record as “no activity”, the “activity in combination with desthio prothioconazole” value is “no activity” and the “activity … with fluxapyroxad” value was “no activity”. Besides, in the experiment on apyrase, the “% Inhibition of Apyrase” value is “about 60%”. In addition, the “control of Botrytis by Amistar in combination with test compound” value in experiment [3] (setting [5]) is on record as “substantially higher than with Amistar alone”. Moreover, the “activity against Botrytis of Balaya in combination with test compound” value in experiment [3] (test compound at 15 ppm) was “no more active against Botrytis than Balaya alone”. Besides, the “control of Botrytis by Proline in combination with test compound” value in experiment [3] (test compound at 30 ppm) is listed as “notably higher than with Proline alone”.
